# Measurements reported in patent publication US8741357B2, “Cosmetic or dermopharmaceutical composition comprising an euglena extract” (Sederma SAS, priority 2005, dated 2014).
# Tested on: Human keratinocytes
# Assay: de novo IP3 synthesis in KHN cells (RIA)
# Assay type: cell-based
# Protocol: The IP3 produced by the cell is extracted with perchloric acid and assay is conducted by a RIA method based on competition for a specific IP3 binding protein between radioactive IP3 and cell extract IP3. The intracellular IP3 is assayed after stimulation with the extract of Euglena, vs.control. The positive control consists in Platelet-Activating Factor (PAF).
# Human keratinocytes were cultured and incubated to 90% confluence. The cells were incubated in the presence of extract of euglena at various concentrations or the control for 1 minute.
substance,measurement,setting,value
Platelet-Activating Factor [PAF],IP3,"positive control, mean of n = 3",17.48 pmol/mL
same,Variation of IP3,"positive control, relative to control",515
same,"IP3 production, result in words",vs control,stimulated IP3 production
